According to paper PMC3183052, “Immunoprotectivity of HLA-A2 CTL Peptides Derived from Respiratory Syncytial Virus Fusion Protein in HLA-A2 Transgenic Mouse” (PLoS ONE, 2011):
“Also recorded” adds a separate entry of the source.

Legend:
[1] = tested on: splenocytes from HLA-A*0201 transgenic C57BL/6 mice; test: IFN-γ ELISPOT of splenocytes restimulated with peptide; assay type: cell-based, mouse
Method in brief: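 HLA-A*0201 transgenic C57BL/6 mice primed and boosted intranasally 20 days apart with 1×10^7 pfu rAd-F0 or 1×10^4 live RSV B1; splenocytes taken 10 days post-boost. Splenocytes restimulated 48 h at 37°C with 2 µg individual RSV F 9-mer peptides; spots counted, expressed per 5×10^5 splenocytes.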

RSV-B1 [2] = test: Lung viral load after live RSV challenge (real-time RT-PCR of RSV N gene); assay type: in vivo, HLA-A*0201 transgenic C57BL/6 mice; settings: two s.c. doses of 50 µg peptide in IFA, challenge i.n. 1×10^7 pfu live RSV-B1, day 4 post-infection; 10 mice per group; vehicle mean = 0.95
Procedure: (§1) To screen the immunodominance of epitopic peptide in the induction of RSV-F specific Th1/Th2 expression, HLA-A*0201 transgenic C57BL/6 mice were anesthetized with isoflurane and immunized with 1×10^7 pfu/50 µL of rAd-F0 or rAd-LacZ or 1×10^4 live RSV B1 via the intranasal (i.n.) route. Twenty days later, the mice were given booster immunization i.n. with the same dose. After 10 days of boost, mice were sacrificed and splenocytes were isolated for the cytokine ELISPOT assay. […] Mice body weight was monitored daily.
Lung RNA (5 µg) was mixed with 10 nmole random primers and 2 units of […] reverse transcriptase (Invitrogen) and incubated at 94°C for 10 minutes, 37°C for 30 minutes, and then at 4°C. The resulting cDNA was subjected to quantitative PCR analysis (The LightCycler® 480 Real-Time PCR system) with RSV N specific primer pairs, forward: 5′-[…]-3′ and reverse: 5′-[…]-3′. Expression of mouse GAPDH gene in the tested samples was detected as internal control by using specific primer pairs, forward: 5′-[…]-3′ and reverse: 5′-[…]-3′. The number of cycles (Ct) required for the amplification of the N gene and GAPDH was calculated. The relative expression of the N gene was calculated as followed: the individual Ct (RSV N) obtained from peptide- or vehicle-immunized lung was normalized by the respective Ct (GAPDH), and then [drawing 3] was divided by the mean of [drawing 4] . […]

RSV-B1 [3] = test: Body weight after live RSV challenge; assay type: in vivo, HLA-A*0201 transgenic C57BL/6 mice; settings: peptide-immunized HLA-Tg B6 mice, 10^7 pfu live RSV-B1 i.n.; weight recorded daily for 9 days
Procedure: as §1, with “assay. For peptide-based vaccination, transgenic mice were immunized subcutaneously (s.c.) with 50 µg of the individual synthetic peptides emulsified in 25 µL of incomplete Freund's adjuvant (IFA) (Sigma-Aldrich) and then boosted after 10 days s.c. with the same dose of the respective peptides mixed with IFA. Mice were sacrificed 7 days after the booster and splenocytes were isolated for in vitro peptide-restimulation.” for “assay.”
Figure 3 Determination of lung viral load and gain of lost body weight. […] (A) The viral load in the lungs of individual mice was determined 4 days after challenge by real-time RT-PCR to quantitate RSV N gene expression as described in the Materials and Methods. […] (B) The body weight of each mouse was recorded daily for 9 days after virus challenge. Results are expressed as % (mean) for 5 mice in each experimental group. […]

CD4+CD25+ T cells = test: Infiltration of CD4+CD25+ T cells in the lungs after RSV challenge; assay type: in vivo, mouse; settings: mice pre-immunized with peptide and challenged with live RSV; unshown results

With “YMLTNSELL [peptide 14, HLA-A*0201-restricted 9-mer synthetic peptide from F protein of RSV-B1 strain]” the “IFN-γ ELISPOT, RSV” value ([1]; splenocytes of HLA-Tg B6 mice primed and boosted i.n. with 10^4 pfu RSV-B1, restimulated with 2 µg peptide, representative of two experiments, five mice per group) was 97 cytokine-secreting cells per 5×10^5 splenocytes, the “IFN-γ ELISPOT, rAd-F0” value ([1]; splenocytes of HLA-Tg B6 mice primed and boosted i.n. with 10^7 pfu rAd-F0, restimulated with 2 µg peptide, representative of two experiments, five mice per group) was 200 cytokine-secreting cells per 5×10^5 splenocytes and the “IFN-γ level in restimulated splenocytes (ELISPOT, text grading)” value ([1]; splenocytes of rAd-F0- or RSV B1-primed and boosted HLA-Tg B6 mice, high = over 100 spots, moderate = over 50 spots) was “over 100 spots”. For the same sequence, the “expression of RSV N gene in the lungs (relative, normalized to GAPDH), mean” value (RSV-B1 [2]) was “no significant reduction; also recorded: reduced lung viral load only marginally”, the “recovery of body weight loss (in words)” value (RSV-B1 [3]) was “recovered only in the last two days” and the “infiltration of CD4+CD25+ T cells in the lungs” value (CD4+CD25+ T cells) was “increased infiltration”.
